# Values of other authors, collected in patent US20100285123A1, “Controlled Release Dosage Formulation of Duloxetine” (priority 2005, published 2010).
# Structures can show the parent of a compound that is named as a salt.
# Columns and labels:
# [1] = patients, acute treatment of major depression
# [2] = gastric pH
headache reported [1] [%],insomnia reported [1] [%],SMILES,incidence of nausea [1] [%],stability in acidic environment [2],patients who did not experience any treatment experienced related adverse event (110 of 1279 patients) [%],"patients discontinued due to adverse events (218 of 1279 patients, major depression, long-term) [%]","headache, patients reporting (389 of 1279 patients) [%]","insomnia, patients reporting (400 of 1279 patients) [%]","nausea, patients reporting (435 of 1279 patients) [%]",patients who experienced at least one or more treatment experienced adverse event (1169 of 1279 patients) [%]
11.5,8.0,Fc1ccc([C@@H]2CCNC[C@H]2COc2ccc3c(c2)OCO3)cc1 [Paroxetine],16.1,–,–,–,–,–,–,–
–,–,CNCC[C@H](Oc1cccc2ccccc12)c1cccs1 [Duloxetine hydrochloride],–,unstable,8.6,17.0,30.4,31.3,34.0,91.4
